Earlier results in US20110165699A1 (priority 2009, published 2011).

inter-patient variability, CV in AUCs (Sasaki, Jpn. J. Cancer 1995): 38.91% | intra- and inter-individual pharmacokinetic variability (has been reported): more than 40 fold
Structure (SMILES): CCc1c2c(nc3ccc(O)cc13)-c1cc3c(c(=O)n1C2)COC(=O)[C@]3(O)CC [SN-38, 7-ethyl-10-hydroxy-camptotheen]
